Five compounds from publication PMC10005332, “It Takes Two to Tango, Part II: Synthesis of A-Ring Functionalised Quinones Containing Two Redox-Active Centres with Antitumour Activities” (Molecules, 2023) can be followed below.

Data set [1] deals with K-562 (human chronic myeloid leukaemia). As to the kind of experiment: MTT cytotoxicity assay, K-562. It counts as cell-based. The following applies: for pIC50: Homo sapiens, K562, MTT, 72 h exposure, three independent experiments, read-out: Cytotoxic activity IC50 (95% CI) K-562; for Selectivity index K-562: ratio of cytotoxicity L929 / K-562. The procedure:
(§1) In this study, the IC50 was obtained in micromolar concentrations, using the colourimetric MTT (3-(4,5-dimethylthiazol-2-yl)-2,5-diphenyl tetrazolium bromide)) assay, and doxorubicin was used as the positive control. […] The activity against the non-tumoural murine fibroblast cell line L929 was also evaluated in order to study the cytotoxicity behaviour of each compound and to understand their respective relative selectivity. The selectivity index was obtained using the ratio of measured cytotoxicity between the L929 cell line and each of the cancer cell lines, and the results are presented in Table 2.
(§2) The in vitro cytotoxicity activity of the compounds was evaluated by the colorimetric MTT (3-(4,5-dimethylthiazol-2-yl)-2,5-diphenyl tetrazolium bromide)) assay using the following tumor cell lines: HCT-116 (colon carcinoma), PC3 (prostate), SNB-19 (glioblastoma), K-562 (myelogenous leukaemia), HL-60 (human promyelocytic leukaemia), B16 (murine melanoma), A549 (human lung carcinoma), KG1 (human acute myeloid leukaemia), and RAJI (human Burkitt’s lymphoma), which were provided by the National Cancer Institute (Bethesda, MD, USA). The L929 cell line (mouse fibroblast L cells NCTC clone 929) employed in this study as a control cell line was obtained from the American Type Culture Collection (Manassas, VA, USA). The cell lines (Table S4) were maintained in flasks containing RPMI 1640 or DMEM medium supplemented with 10% bovive fetal sérum, 100 U/mL penicillin, and 100 μg/mL streptomycin at 37 °C and in 5% CO2 atmosphere. The compounds tested were dissolved in DMSO. Doxorubicin served as the positive control. Cell treatments were performed with three replicates and the cells were mycoplasma free. After 72 h incubation, 100 μL of MTT solution (0.5 mg/mL) was added to each well, and the cells were incubated for 3 h. The supernatant was removed and 100 μL of DMSO was added and the absorbance at 595 nm was measured using Victor Nivo Multimode plate reader (PerkinElmer, Waltham, MA, USA). The absorbances obtained were used to calculate the IC50 values by nonlinear regression employing appropriate statistical software.
(§3) The in vitro cytotoxicity activity of compounds was evaluated by the colorimetric MTT (3-(4,5-dimethylthiazol-2-yl)-2,5-diphenyl tetrazolium bromide)) assay using tumor cell lines: HCT-116 (colon carcinoma), PC3 (prostate), SNB-19 (glioblastoma), K-562 (myelogenous leukaemia), HL-60 (human promyelocytic leukaemia), B16 (murine melanoma), A549 (human lung carcinoma), KG1 (human acute myeloid leukaemia) and RAJI (human Burkitt's lymphoma), which were provided by the National Cancer Institute (Bethesda, MD, USA). The L929 cell line (mouse fibroblast L cells NCTC clone 929) employed in this study as a control cell line was obtained from the American Type Culture […]
(§4) Collection (Manassas, VA, USA). Cell lines (Table 01) were maintained in flasks containing RPMI 1640 or DMEM medium supplemented with 10% bovive fetal sérum, 100 U/mL penicillin, and 100 μg/mL streptomycin at 37 °C and 5% CO2 atmosphere.
(§5) Compounds tested were dissolved in DMSO. Doxorubicin served as positive control. Cell treatments were performed with three replicates and cells were mycoplasma-free. After 72 h incubation, 100 μL of MTT solution (0.5 mg/mL) was added to each well, and cells were incubated for 3 h. The supernatant was removed and 100 μL of DMSO was added and the absorbance at 595 nm was measured using Victor Nivo Multimode plate reader

Data set [2] can be described thus: MTT cytotoxicity assay, L929 control line. It counts as cell-based, mouse. The following applies: mouse, L929 fibroblast cells (non-tumoral control line), 72 h exposure, read-out: Cytotoxic activity IC50 (95% CI) L929. The protocol:
as §1, §2, §3, §4, §5

In data set [3] the test system is KG1 (human acute myeloid leukaemia). Kind of data set: MTT cytotoxicity assay, KG1. The conditions noted are these: for pIC50: Homo sapiens, MTT, 72 h exposure, three independent experiments, read-out: Cytotoxic activity IC50 (95% CI) KG1; for Selectivity index KG1: ratio of cytotoxicity L929 / KG1. In kind it is cell-based. The procedure: as §1, §2, §3, §4, §5

Data set [4] relates to B16 (murine melanoma). As to the kind of experiment: MTT cytotoxicity assay, B16. The conditions noted are these: for pIC50: Mus musculus, MTT, 72 h exposure, three independent experiments, read-out: Cytotoxic activity IC50 (95% CI) B16; for Selectivity index B16: ratio of cytotoxicity L929 / B16. It counts as cell-based. The protocol:
as §1, §2, §3, §4, §5

The test system of data set [5] is A549 (human lung carcinoma). Kind of data set: MTT cytotoxicity assay, A549. It counts as cell-based. The conditions noted are these: for pIC50: Homo sapiens, A549, MTT, 72 h exposure, three independent experiments, read-out: Cytotoxic activity IC50 (95% CI) A549; for Selectivity index A549: ratio of cytotoxicity L929 / A549. The procedure:
as §1, §2, §3, §4, §5

Data set [6] deals with HCT-116 (human colorectal carcinoma). Kind of data set: MTT cytotoxicity assay, HCT-116. It counts as cell-based. The following applies: for pIC50: Homo sapiens, HCT-116, 72 h, MTT, 72 h exposure, three independent experiments, read-out: Cytotoxic activity IC50 (95% CI) HCT-116; for Selectivity index HCT-116: ratio of cytotoxicity L929 / HCT-116. The protocol: as §1, §2, §3, §4, §5

For data set [7], the system named is HL60 (human pro-myelocytic leukaemia). As to the kind of experiment: MTT cytotoxicity assay, HL60. In kind it is cell-based. The conditions noted are these: for pIC50: Homo sapiens, HL-60, 72 h, MTT, 72 h exposure, three independent experiments, read-out: Cytotoxic activity IC50 (95% CI) HL60; for Selectivity index HL60: ratio of cytotoxicity L929 / HL60. The procedure:
as §1, §2, §3, §4, §5

In data set [8] the test system is PC3 (human prostate adenocarcinoma). As to the kind of experiment: MTT cytotoxicity assay, PC3. In kind it is cell-based. The conditions noted are these: for pIC50: Homo sapiens, MTT, 72 h exposure, three independent experiments, read-out: Cytotoxic activity IC50 (95% CI) PC3; for Selectivity index PC3: ratio of cytotoxicity L929 / PC3. The procedure:
as §1, §2, §3, §4, §5

Data set [9] deals with SNB-19 (human astrocytoma). Kind of data set: MTT cytotoxicity assay, SNB-19. In kind it is cell-based. The following applies: for pIC50: Homo sapiens, SNB-19, MTT, 72 h exposure, three independent experiments, read-out: Cytotoxic activity IC50 (95% CI) SNB-19; for Selectivity index SNB-19: ratio of cytotoxicity L929 / SNB-19. The procedure: as §1, §2, §3, §4, §5
The test system of data set [10] is RAJI (human Burkitt’s lymphoma). As to the kind of experiment: MTT cytotoxicity assay, RAJI. In kind it is cell-based. The conditions noted are these: for pIC50: Homo sapiens, Raji, 72 h, MTT, 72 h exposure, three independent experiments, read-out: Cytotoxic activity IC50 (95% CI) RAJI; for Selectivity index RAJI: ratio of cytotoxicity L929 / RAJI. The protocol: as §1, §2, §3, §4, §5

pIC50: −log10 of the molar value.

With `O=C1C(=O)c2ccccc2C2=C1CC(Cn1cc(CNC3=CC(=O)c4cccc(OCc5ccccc5)c4C3=O)nn1)O2` (centres unmarked) [Compound 20d, 2-((4-(((8-benzyloxy-1,4-dioxo-1,4-dihydronaphthalen-2-yl)amino)methyl)-1H-1,2,3-triazol-1-yl)methyl)-2,3-dihydronaphtho[1,2-b]furan-4,5-dione], in data set [1], the pIC50 is 4.98 and the “Selectivity index K-562” value is 0.9. For the same compound, in data set [2], the IC50 at 72 h is 9.43 µM. Moreover, in data set [3], the pIC50 was 5.05 and the “Selectivity index KG1” value came out at 1.1. In data set [4], the pIC50 was 5.04 and the “Selectivity index B16” value amounted to 1.0. Besides, in data set [5], the negative logarithm of the IC50 (pIC50) was 4.56 and the “Selectivity index A549” value was 0.3. In addition, in data set [6], the pIC50 was 5.21 and the “Selectivity index HCT-116” value is given as 1.5. For the same compound, in data set [7], the pIC50 is 5.43 and the “Selectivity index HL60” value is on record as 2.5. Further, in data set [8], the pIC50 is 4.89 and the “Selectivity index PC3” value is recorded as 0.7. In data set [9], the pIC50 was 4.99 and the “Selectivity index SNB-19” value turned out to be 0.9. For the same compound, in data set [10], the pIC50 was 5.36 and the “Selectivity index RAJI” value came to 2.2.

On to `O=C1C(=O)c2ccccc2C2=C1CC(Cn1cc(CNC3=CC(=O)c4c(O)cccc4C3=O)nn1)O2` (centres unmarked) [Compound 20b, 2-((4-(((5-hydroxy-1,4-dioxo-1,4-dihydronaphthalen-2-yl)amino)methyl)-1H-1,2,3-triazol-1-yl)methyl)-2,3-dihydronaphtho[1,2-b]furan-4,5-dione], for which, in [1], the pIC50 is 4.89 and the “Selectivity index K-562” value is given as 2.2. Also, in [2], the IC50 at 72 h was determined as 27.6 µM. Moreover, in data set [3], the pIC50 was 4.63 and the “Selectivity index KG1” value was 1.2. For the same compound, in data set [4], the pIC50 is 5.34 and the “Selectivity index B16” value came out at 6.1. In addition, in data set [5], the negative logarithm of the IC50 (pIC50) is 4.72 and the “Selectivity index A549” value is given as 1.5. In [6], the pIC50 is 5.14 and the “Selectivity index HCT-116” value is reported as 3.8. In data set [7], the pIC50 was 5.30 and the “Selectivity index HL60” value came to 5.5. Further, in data set [8], the pIC50 was 4.99 and the “Selectivity index PC3” value amounted to 2.7. In [9], the pIC50 was 5.02 and the “Selectivity index SNB-19” value came out at 2.9. Besides, in data set [10], the pIC50 was 5.60 and the “Selectivity index RAJI” value was 11.1.

With `CC1(C)OC2=C(C(=O)C(=O)c3ccccc32)C1n1cc(CNC2=CC(=O)c3c(I)cccc3C2=O)nn1` (centres unmarked) [Compound 19a, 3-(4-(((5-iodo-1,4-dioxo-1,4-dihydronaphthalen-2-yl)amino)methyl)-1H-1,2,3-triazol-1-yl)-2,2-dimethyl-2,3-dihydronaphtho[1,2-b]furan-4,5-dione], in data set [1], the pIC50 was 5.92 and the “Selectivity index K-562” value was 1.0. Moreover, in [2], the IC50 at 72 h is 1.21 µM. In data set [3], the pIC50 was 5.86 and the “Selectivity index KG1” value was found to be 0.9. In addition, in [4], the pIC50 was 5.73 and the “Selectivity index B16” value is 0.6. In [5], the pIC50 is 5.59 and the “Selectivity index A549” value was found to be 0.5. For the same compound, in data set [6], the pIC50 is 6.00 and the “Selectivity index HCT-116” value was 1.2. In addition, in [7], the pIC50 was 6.36 and the “Selectivity index HL60” value is reported as 2.8. Besides, in data set [8], the pIC50 is 5.44 and the “Selectivity index PC3” value was determined as 0.3. Moreover, in [9], the pIC50 is 6.00 and the “Selectivity index SNB-19” value is 1.2. In data set [10], the pIC50 was 5.69 and the “Selectivity index RAJI” value is 0.6.

Turning to `C#CCNC1=CC(=O)c2cc3ccccc3cc2C1=O` [Compound 18e, 2-(prop-2-yn-1-ylamino)anthracene-1,4-dione], the negative-log IC50 (pIC50) in [1], in data set [3], in [4], in data set [5], in data set [6] and in data set [7] was below 4.00 throughout. In addition, the negative logarithm of the IC50 (pIC50) in data set [8], in data set [9] and in [10] was below 4.00 in each case. Also, the IC50 at 72 h in [2] is above 100 µM.

Consider `CC1(C)OC2=C(CC1Cn1cc(CNC3=CC(=O)c4cccc(OCc5ccccc5)c4C3=O)nn1)C(=O)C(=O)c1ccccc12` (centres unmarked) [Compound 21d, 3-((4-(((8-benzyloxy-1,4-dioxo-1,4-dihydronaphthalen-2-yl)amino)methyl)-1H-1,2,3-triazol-1-yl)methyl)-2,2-dimethyl-3,4-dihydro-2H-benzo[h]chromene-5,6-dione], for which, in data set [1], the negative-log IC50 (pIC50) is 5.00 and the “Selectivity index K-562” value is given as 0.5. In addition, the 50% inhibitory concentration (IC50) at 72 h in data set [2] worked out at 5.27 µM. Besides, in data set [3], the pIC50 is 4.94 and the “Selectivity index KG1” value came to 0.5. Also, in data set [4], the pIC50 was 5.29 and the “Selectivity index B16” value is 1.0. For the same compound, in [5], the pIC50 was 5.58 and the “Selectivity index A549” value stood at 2.0. Besides, in [6], the pIC50 was 5.38 and the “Selectivity index HCT-116” value is 1.3. In [7], the pIC50 is 6.05 and the “Selectivity index HL60” value is given as 5.9. In addition, in data set [8], the pIC50 is 5.01 and the “Selectivity index PC3” value is recorded as 0.5. Further, in [9], the pIC50 was 5.42 and the “Selectivity index SNB-19” value is 1.4. In addition, in data set [10], the pIC50 is 4.54 and the “Selectivity index RAJI” value amounted to 0.2.
